Measured values from patent US4690923A, “2-(Perhydro-1,4-diazino)-pyrimido(5,4-D)-pyrimidines, pharmaceutical compositions and use” (Karl Thomae GmbH, priority 1979, dated 1987).
pEC50: −log10 of the molar value.

Assays:
thrombocytes = assay: Collagen-induced aggregation of thrombocytes in human platelet-rich plasma (Born and Cross); assay type: cell-based; conditions: 10 min, platelet-rich plasma of healthy human subjects, incubated 10 minutes at 37° C. before collagen, determined graphically, read-out: EC50 (dosage producing 50% inhibition of the thrombocyte aggregation)
Experimental: The aggregation of thrombocytes was measured according to the method of BORN and CROSS [J. Physiol. 170, 397 (1964)] in the platelet-rich plasma of healthy human test subjects. To inhibit coagulation, the blood was admixed with a 3.14% sodium citrate solution in a volumetric ration of 1:10.
The decrease in optical density was measured and recorded photometrically after the addition of the aggreation-inducing substance. From the angle of inclination of the density curve, the rate of aggregation was estimated (Vmax). The optical density was taken as the point on the curve where the most light was transmitted (O.D.).
Small doses of collagen were chosen, but sufficient to give irreversible aggregation. (Commercial collagen of Hormonchemie, Munich, Germany.)
Before the addition of collagen, the plasma was incubated with the substance for 10 minutes at 37° C.,
The dosage of the test compound which produced a 50% inhibition of the thrombocyte aggregation was determined graphically (EC50).

[1] = Acute toxicity after oral administration of a single dose; assay type: in vivo; conditions: in vivo; mouse, oral single dose 250 mg/kg, 5 mice each, observation time 7 days; read-out: Acute toxicity per os
Experimental: (§1) The acute toxicity was determined in groups of 5 mice each after oral administration of a single dose of 250 mg/kg (observation time: 7 days). The test compound was suspended in 2% methyl cellulose, and after addition of some water, each substance was administered to the conscious animals by means of a stomach tube.

mice = assay: as above; assay type: in vivo; conditions: mouse, oral single dose 250 mg/kg, observation time 7 days
Experimental: as §1

SMILES | pEC50 (thrombocytes) | LD50 at 168 h [1] | animals died (mice)
CN(Cc1ccccc1)c1ncnc2c(N3CC[S+]([O-])CC3)nc(N3CCN(C=O)CC3)nc12 [U, 8-(N-Benzyl-methylamino)-2-(N-formyl-piperazino)-4-(1-oxido-thiomorpholino)-pyrimido-[5,4-d]-pyrimidine] | 6.54 | > 250 mg/kg | 1 out of 5 animals
O=C(c1ccco1)N1CCN(c2nc(N3CCOCC3)c3ncnc(SCc4ccccc4)c3n2)CC1 [H, 8-Benzylthio-2-[N-(2-furoyl)-piperazino]-4-morpholino-pyrimido-[5,4-d]-pyrimidine] | 7.00 | > 250 mg/kg | 0 out of 5 animals
OCCOc1ncnc2c(N3CCOCC3)nc(N3CCNCC3)nc12 [N, 8-(2-Hydroxyethoxy)-4-morpholino-2-piperazino-pyrimido-[5,4-d]-pyrimidine] | 7.40 |  | 
CN(Cc1ccccc1)c1ncnc2c(N3CC[S+]([O-])CC3)nc(N3CCNCC3)nc12 [S, 8-(N-Benzyl-methylamino)-4-(1-oxido-thiomorpholino)-2-piperazino-pyrimido-[5,4-d]-pyrimidine] | 8.52 | > 250 mg/kg | 0 out of 5 animals
CCN(CC)CCSc1ncnc2c(N3CC[S+]([O-])CC3)nc(N3CCNCC3)nc12 [G, 8-(2-Diethylaminoethyl-thio)-4-(1-oxido-thiomorpholino)-2-piperazino-pyrimido-[5,4-d]-pyrimidine] | 7.70 | > 250 mg/kg | 0 out of 5 animals
[O-][S+]1CCN(c2nc(N3CCNCC3)nc3c(SCCO)ncnc23)CC1 [O, 8-(2-Hydroxyethyl-thio)-4-(1-oxido-thiomorpholino)-2-piperazino-pyrimido-[5,4-d]-pyrimidine] | 7.55 | > 250 mg/kg | 0 out of 5 animals
c1ccc(Sc2ncnc3c(N4CCSCC4)nc(N4CCNCC4)nc23)cc1 [P, 8-Phenylthio-2-piperazino-4-thiomorpholino-pyrimido-[5,4-d]-pyrimidine] | ~7.00 |  | 
[O-][S+]1CCN(c2nc(N3CCNCC3)nc3c(SCc4ccccc4)ncnc23)CC1 [D, 8-Benzylthio-4-(1-oxido-thiomorpholino)-2-piperazino-pyrimido-[5,4-d]-pyrimidine] | 7.52 | > 250 mg/kg | 0 out of 5 animals
[O-][S+]1CCN(c2nc(N3CCNCC3)nc3c(Nc4ccccc4)ncnc23)CC1 [V, 8-Anilino-4-(1-oxido-thiomorpholino)-2-piperazino-pyrimido-[5,4-d]-pyrimidine] | 7.52 | > 250 mg/kg | 1 out of 5 animals
Clc1ccc(CSc2ncnc3c(N4CCOCC4)nc(N4CCNCC4)nc23)c(Cl)c1 [L, 8-(2,4-Dichlorobenzyl-thio)-4-morpholino-2-piperazino-pyrimido-[5,4-d]-pyrimidine] | 8.10 | > 250 mg/kg | 0 out of 5 animals
CCSc1ncnc2c(N3CC[S+]([O-])CC3)nc(N3CCNCC3)nc12 [B, 8-Ethylthio-4-(1-oxido-thiomorpholino)-2-piperazino-pyrimido-[5,4-d]-pyrimidine] | > 8.00 |  | 
c1ccc(CSc2ncnc3c(N4CCOCC4)nc(N4CCNCC4)nc23)cc1 [C, 8-Benzylthio-4-morpholino-2-piperazino-pyrimido-[5,4-d]-pyrimidine] | 8.07 | > 250 mg/kg | 0 out of 5 animals
CN1CCN(c2nc(N3CC[S+]([O-])CC3)c3ncnc(SCc4ccccc4)c3n2)CC1 [K, 8-Benzylthio-2-(N-methyl-piperazino)-4-(1-oxido-thio-morpholino)-pyrimido-[5,4-d]-pyrimidine] | 6.46 | > 250 mg/kg | 0 out of 5 animals
[O-][S+]1CCN(c2nc(N3CCNCC3)nc3c(NCc4ccccc4)ncnc23)CC1 [R, 8-Benzylamino-4-(1-oxido-thiomorpholino)-2-piperazino-pyrimido-[5,4-d]-pyrimidine] | 8.38 | > 250 mg/kg | 0 out of 5 animals
[O-][S+]1CCN(c2nc(N3CCN(CCO)CC3)nc3c(SCc4ccccc4)ncnc23)CC1 [F, 8-Benzylthio-2-[N-(2-hydroxyethyl)-piperazino]-4-(1-oxido-thiomorpholino)-pyrimido-[5,4-d]-pyrimidine] | 6.42 | > 250 mg/kg | 0 out of 5 animals
COc1ccc(CSc2ncnc3c(N4CCOCC4)nc(N4CCNCC4)nc23)cc1OC [I, 8-(3,4-dimethoxybenzyl-thio)-4-morpholino-2-piperazino-pyrimido-[5,4-d]-pyrimidine] | 8.00 |  | 
[O-][S+]1CCN(c2nc(N3CCNCC3)nc3c(SCCc4ccccc4)ncnc23)CC1 [Compound E, 4-(1-Oxido-thiomorpholino)-8-phenethylthio-2-piperazino-pyrimido-[5,4-d]-pyrimidine] | 7.66 | > 250 mg/kg | 0 out of 5 animals
c1ccc(CNc2ncnc3c(N4CCSCC4)nc(N4CCNCC4)nc23)cc1 [T, 8-Benzylamino-2-piperazino-4-thiomorpholino-pyrimido-[5,4-d]-pyrimidine] | 6.60 | > 250 mg/kg | 0 out of 5 animals
O=CN1CCN(c2nc(N3CC[S+]([O-])CC3)c3ncnc(SCc4ccccc4)c3n2)CC1 [M, 8-Benzylthio-2-(N-formyl-piperazino)-4-(1-oxido-thiomorpholino)-pyrimido-[5,4-d]-pyrimidine] | 7.82 | > 250 mg/kg | 0 out of 5 animals
[O-][S+]1CCN(c2nc(N3CCNCC3)nc3c(OCc4ccccc4)ncnc23)CC1 [Q, 8-Benzyloxy-4-(1-oxido-thiomorpholino)-2-piperazino-pyrimido-[5,4-d]-pyrimidine] | 8.44 | > 250 mg/kg | 0 out of 5 animals
CSc1ncnc2c(N3CC[S+]([O-])CC3)nc(N3CCNCC3)nc12 [Compound A, 8-Methylthio-4-(1-oxido-thiomorpholino)-2-piperazino-pyrimido-[5,4-d]-pyrimidine] | 9.00 |  | 
